In assay [1] the test system is hvKp strain 17ZR101. Description: Bacteria burden in organs, 10^7 CFU hvKp. Type of assay: in vivo, C57BL6 mice. Conditions: 4 hpi. The method, then:
Ten-fold dilutions of tissue homogenate were prepared and spread onto MacConkey agar plates containing 2 μg mL^−1 cefotaxime to determine the bacterial load in different organs of the infected animals. To determine the number of intracellular bacteria, cells prepared for flow cytometry from lungs and spleens were collected and then incubated with 300 μg mL^−1 amikacin to kill the extracellular bacteria. The number of total and intracellular bacteria was counted and presented as the number of CFU g^−1 tissue.
(§1) In ASA, NPXS, CTX, AzA, CsA, DXMS, and F-ara treatment experiment, mice challenged by 17ZR101 were given intraperitoneally 100 mg kg^−1 ASA, 50 mg kg^−1 NPXS, 150 mg kg^−1 CTX, 200 mg kg^−1 AzA, 20 mg kg^−1 CsA, 10 mg kg^−1 DXMS and 40 mg kg^−1 F-ara at 3 hpi, another group treated with an equal volume of PBS or 200 μL of corn oil solution was included as a control group. In ASA and CAZ/AVI combination treatment experiment, mice were given intraperitoneally 100 mg kg^−1 ASA plus 8 mg kg^−1 CAZ and 4 mg kg^−1 AVI or 8 mg kg^−1 CAZ and 4 mg kg^−1 AVI at 1 hpi. The health status and weight of all mice were observed and recorded.

For assay [2], the system named is F4/80+ cells (IMs), neutrophils in lungs. Nature of the assay: Flow cytometry of lung cells, 10^4 CFU 17ZR101 sepsis model. Type of assay: in vivo, C57BL6 mice. Conditions: ASA at 3 hpi. The procedure:
(§2) Cells collected from different tissues of the test animals were subjected to flow cytometry analysis as described previously^4. Cells from spleens were obtained by mashing the organ through a 70-μm cell strainer and collected in a tube containing RPMI 1640 medium supplemented with 5% fetal bovine serum. To prepare lung cells, lung tissues were excised and incubated in HBSS containing 1×HEPES and Collagenase type I. The tissue fragments were forced through a 70-μm strainer as described above. Red blood cells were lysed with ACK lysing buffer.
Dead cells were excluded from the analysis by propidium iodide (Sigma-Aldrich Corporation, P4170-1G) or ghost Dye™ violet 510 (Tonbo Biosciences, 13-0870-T100) staining in all flow cytometry experiments. Fluorescently labeled mAbs against mouse CD45, CD11b, CD206, CD80, Ly6G, CD11c, SiglecF, Ly6C and appropriate isotype controls were obtained from Biolegend. For intracellular cytokine measurement, cells were incubated with Cell Activation Cocktail (BioLegend, 423303) at 37° C. in the dark for 4 h. Anti-IFN-γ-PE antibody (eBioscience, 12-7177-81) was used to determine intracellular expression of IFN-γ. For p-STAT1 measurement, the cells were fixed with IC fixation buffer (eBioscience, 00-8222-49) for 30 min and then suspended in 1 mL of methanol to permeabilize the cell membrane, left to stand for 10 min on ice. At the time of p-STAT1 measurement, the cell suspensions were washed with FACS buffer and then stained with PE-anti-STAT1 Phospho antibody (Biolegend, 686404). […] The acquired data were analyzed by the FlowJo software (Version 10.0.7, Treestar, Palo Alto, CA).
(§3) In ASA, NPXS, CTX, AzA, CsA, DXMS, and F-ara treatment experiment, mice challenged by 17ZR101 were given intraperitoneally 100 mg kg^−1 ASA, 50 mg kg^−1 NPXS, 150 mg kg^−1 CTX, 200 mg kg^−1 AzA, 20 mg kg^−1 CsA, 10 mg kg^−1 DXMS and 40 mg kg^−1 F-ara at 3 hpi, another group treated with an equal volume of PBS or 200 μL of corn oil solution was included as a control group. […] The health status and weight of all mice were observed and recorded.

In assay [3] the test system is hvKp strain 17ZR101. Nature of the assay: Mouse sepsis model, ~10^4 CFU 17ZR101, drug at 3 hpi: survival, body weight, spleen weight. Type of assay: in vivo, C57BL6 mice. The procedure: All animal experiments were approved by the Animal Ethics Committee of the City University of Hong Kong and followed the guidelines of the Institutional Laboratory Animal Research Unit. Six- to eight-weeks-old animals of both sexes were used in this study. For the sepsis model, mice were intravenously injected with ˜10^4 colony forming units (CFU) of the test stain resuspended in 200 μL PBS. For the pneumonia model, mice were anesthetized by inhaling isoflurane, and ˜10^6 CFU of the strain resuspended 10 μL PBS were dripped into the mouse's nasal cavity. The heads of the mice were hold upright for 30 s afterwards.
as §1

A further assay relates to IL-6. Description: Serum IL-6 by ELISA in 17ZR101-infected mice. Type of assay: in vivo, C57BL6 mice. Conditions: 17ZR101-infected mice treated with ASA; untreated 587.965. The method, then:
(§4) The serum level of IL-6 of the test animals was measured by using the IL-6 Mouse Uncoated ELISA Kit (Thermo fisher scientific, 88-7064-88), IL-1β level by IL-1 beta Mouse Uncoated ELISA Kit (Thermo fisher scientific, 88-7013-86) and that of IFN-γ was measured by using the IFN gamma Mouse Uncoated ELISA Kit (Thermo fisher scientific, 88-7314-88) according to instructions of the manufacturer.
as §1

For assay [4], the system named is Stat1 and STAT1-regulated chemokines, M1 markers, Cox-1, Cox-2. Nature of the assay: RNA-Seq / qPCR of lung cells of 17ZR101-infected mice. Type of assay: in vivo, C57BL6 mice. The method, then: RNA was extracted from lung samples by homogenization in TRIzol reagent (15596026, Thermo Fisher Scientific), followed by chloroform extraction and isopropanol precipitation. The extracted RNA was reverse-transcribed into cDNA by using a SuperScript® III First-Strand Synthesis SuperMix kit (11752050, ThermoFisher Scientific). Real-time quantitative PCR was performed by using a QuantStudio™ 7 Pro Real-Time PCR System, following the manufacturer's instructions. cDNA samples were tested in duplicates, and the relative amount of mRNA in different samples (Gapdh, Il1b, Ifng, Cxcl2, Cxcl10, Ifna, Ifnb, Ifnar1, Stat1, Hmgb1, Il-6, Myd88, and Tlr4) was determined by the comparative threshold cycle (ΔΔCT) method, using the glyceraldehyde-3-phosphate dehydrogenase gene (Gapdh) for normalization.
Total RNA was extracted from lung samples by homogenization in TRIzol reagent, followed by chloroform extraction and isopropanol precipitation. DNA was removed by DNase treatment (TURBO DNA-Free™ Kit). RNA samples were sent to Novogene (HK) Company Limited for sequencing. Routine procedures of mRNA purification and library generation were performed by Novogene. Sequencing reads alignment was performed by using HISAT2. Count aligned reads and quantification were calculated based on exon regions using FeatureCounts. […] Gene Set Enrichment Analysis was performed for gene ontology enrichment analysis. The raw RNA-seq data has been deposited in NCBI database under the accession number PRJNA851242.
as §1

Assay [5] relates to F4/80+ cells and Ly6G+ cells in lungs. Nature of the assay: Flow cytometry of lung cells at 4 hpi, 10^7 CFU hvKp. Type of assay: in vivo, C57BL6 mice. The procedure: as §2
Dead cells were excluded from the analysis by propidium iodide (Sigma-Aldrich Corporation, P4170-1G) or ghost Dye™ violet 510 (Tonbo Biosciences, 13-0870-T100) staining in all flow cytometry experiments. […] The acquired data were analyzed by the FlowJo software (Version 10.0.7, Treestar, Palo Alto, CA).
as §3

Assay [6] deals with K. pneumoniae strain HKU1 (clinical cKp strain). Description: Antibiotic susceptibility test (microdilution), strain HKU1. Type of assay: cell-based, Klebsiella pneumoniae. Conditions: CLSI. The procedure: (§5) The antimicrobial susceptibility of the two Klebsiella strains was determined by the microdilution method according to the guidelines recommended by the Clinical and Laboratory Standards Institute^2. Escherichia coli strain ATCC 25922 was included as a quality control strain. All tests were performed in duplicate, and each test included three biological replicates.

In assay [7] the test system is K. pneumoniae strain 17ZR101 (K2 hvKp clinical strain). Nature of the assay: Antibiotic susceptibility test (microdilution), strain 17ZR101. Type of assay: cell-based, Klebsiella pneumoniae. Conditions: CLSI. The procedure: as §5
For the next assay, the system named is IFN-γ. Description: Serum IFN-γ by ELISA in 17ZR101-infected mice. Type of assay: in vivo, C57BL6 mice. The conditions noted are these: 17ZR101-infected mice treated with F-ara; untreated 2742.872. The method, then: as §4, §1
[8] abbreviates: RNA-Seq lung cells, 17ZR101+ASA vs 17ZR101, unit not given.

For `CC(=O)Oc1ccccc1C(=O)O` [ASA, acetylsalicylic acid], the “bacteria burden in various organs” value in the assay on hvKp strain 17ZR101 [1] is given as “without contributing to bacteria clearance”. Also, in assay [2], the “F4/80+ cells infiltration into the lungs” value is given as “suppressed F4/80^+ cells infiltration into the lungs” and the “levels of neutrophils in the lungs” value is on record as “slight decrease”. Besides, in assay [2] (CD80 MFI), the M1 macrophage polarization entry is given as “able to inhibit M1 macrophage polarization”. In the assay on hvKp strain 17ZR101 [3] (12 hpi, ASA 100 mg kg^−1 i.p. at 3 hpi, untreated 0.863%), the spleen/body weight ratio is on record as 0.495%. In addition, the bodyweight loss with hvKp strain 17ZR101 [3] (12 hpi, ASA 100 mg kg^−1 i.p. at 3 hpi, untreated 7.206%) amounted to 2.076%. The “mice protected (survival)” value with hvKp strain 17ZR101 [3] (17ZR101 infection, 100 mg kg^−1 ASA i.p. at 3 hpi, at 48 hpi) came out at 100%. Besides, in the assay on IL-6, the “serum IL-6 production” value is 57.964 pg/mL. The “expression level of M1 macrophage markers” value in assay [4] (RNA-Seq and qPCR, lung cells, ASA) was “decrease in expression level of M1 macrophage markers”. In addition, in assay [4] (setting [8]), the Cxcl9 expression change is listed as −2.118, the Cxcl10 expression change is given as −3.590 and the Cxcl11 expression change is recorded as −2.098. Further, the Stat1 expression change in [4] (RNA-Seq lung cells, 17ZR101+ASA vs 17ZR101, unit not printed here (Log 2 fold change)) is −1.056. In assay [4] (upon ASA administration), the “Cox-1 and Cox-2 expression at the mRNA level” value was “no significant difference”. For the same compound, in assay [5], the “F4/80+ cells infiltration in lungs” value was “could suppress F4/80^+ cells infiltration” and the “Ly6G+ cells in lungs” value is reported as “not significantly”.
Consider `NCC[C@H](O)C(=O)N[C@@H]1C[C@H](N)[C@@H](O[C@H]2O[C@H](CN)[C@@H](O)[C@H](O)[C@H]2O)[C@H](O)[C@H]1O[C@H]1O[C@H](CO)[C@@H](O)[C@H](N)[C@H]1O` [amikacin], for which the antimicrobial susceptibility result in assay [6] and in [7] was “susceptible” in each case.
For polymyxin B, the antimicrobial susceptibility result in [6] and in [7] was “susceptible” in each case.
For `CN(C)c1cc(NC(=O)CNC(C)(C)C)c(O)c2c1C[C@H]1C[C@H]3[C@H](N(C)C)C(O)=C(C(N)=O)C(=O)[C@@]3(O)C(O)=C1C2=O` [tigecycline], the antimicrobial susceptibility result in assay [6] and in assay [7] was “susceptible” in each case.
For the compound `Nc1nc(F)nc2c1ncn2[C@@H]1O[C@H](CO)[C@@H](O)[C@@H]1O` [F-ara, Fludarabine], the “mice protected from death” value in the assay with hvKp strain 17ZR101 [3] (17ZR101 infection, 40 mg kg^−1 F-ara i.p. at 3 hpi, within 48 h) was 50%. Moreover, the “serum IFN-γ level” value in the assay on IFN-γ was 445.133 pg/mL.
In the case of `CC(C)(O/N=C(\C(=O)N[C@@H]1C(=O)N2C(C(=O)[O-])=C(C[n+]3ccccc3)CS[C@H]12)c1csc(N)n1)C(=O)O` [ceftazidime], the antimicrobial susceptibility result in [6] and in assay [7] was “resistant” each time.
Take `C[C@@H](O)[C@H]1C(=O)N2C(C(=O)O)=C(S[C@@H]3CN[C@H](C(=O)N(C)C)C3)[C@H](C)[C@H]12` [meropenem]: the antimicrobial susceptibility result in assay [6] and in [7] was “resistant” throughout.
With `O=P1(N(CCCl)CCCl)NCCCO1` (stereo not shown) [cyclophosphamide], the “protective effect (survival)” value with hvKp strain 17ZR101 [3] (17ZR101 infection, 150 mg kg^−1 CTX i.p. at 3 hpi) is “did not exhibit any protective effect”.
On to `CO/N=C(\C(=O)N[C@@H]1C(=O)N2C(C(=O)O)=C(COC(C)=O)CS[C@H]12)c1csc(N)n1` [cefotaxime], for which the antimicrobial susceptibility entry in [6] and in assay [7] was “resistant” throughout.
